Test results reported in paper PMC12211128, “Safety, tolerability, pharmacokinetic and pharmacodynamic effects of the muscarinic M1 positive allosteric modulator VU0467319 for Alzheimer’s disease: a single ascending-dose study in healthy participants” (Alzheimer's Research & Therapy, 2025).

Tested on: healthy participants
Assay: Selective Reminding Task (SRT)
Assay type: in vivo, human
Conditions: for SRT Delayed Recall / SRT Immediate Recall / SRT Recall Consistency / SRT Recall Failure: mean (SD)
Description: The Selective Reminding Task (SRT; [36]) was used to test immediate and delayed episodic memory. Participants were read a list of 16 words and must immediately recall the list across eight trials, then again after a 20-minute delay. The outcome measures were the SRT total immediate recall across the eight trials, recall consistency as the number of words correctly recalled on two sequential trials, recall failure as the number of words not recalled on two sequential trials, and the delayed recall after the 20-min delay.
Cognitive data: In this exploratory analysis, each outcome variable of the cognitive data was examined in a mixed model analysis of variance with one between-subjects factor of VU319 dose (0, 60, 120, 240, 400, 600 mg) and a within-subjects factor of testing session (pre-dose vs. post-dost administration). Post-hoc analysis compared each of the VU319 dose cohorts against the placebo group. Because the participants were healthy adults with normal cognitive function, we considered effects between no reductions in function to small improvement (d = 0.0–0.20) to be a positive result. For the food effect study, only the participants who received VU319 were examined due to the disproportionately small placebo group (n = 2). A within-subjects ANOVA including food condition (fasted/fed) and testing session (pre-dose vs. post-dose administration) was performed on each outcome variable.
The Selective Reminding Task (SRT; (Buschke & Fuld, 1974)) was used to test immediate and delayed episodic recall. Participants were read a list of 16 words and must immediately recall the list across 8 trials. […] Upon completing the immediate recall portion of the SRT and after a 20‐minute delay, participants were asked to complete a single delayed recall trial. SRT total immediate recall was analyzed using the number of correctly recalled words across trials 1–8, total immediate recall consistency was analyzed using the number of words correctly recalled on two sequential trials across trials 1–8, SRT total immediate recall failure was analyzed using the number of words not recalled on two sequential trials across trials 1–8, and total delayed recall was analyzed using the number of words correctly recalled after a 20-min delay.

[1] = Food effect study 120 mg, Fasting, Post-Drug
[2] = Food effect study 120 mg, Fasting, Pre-Drug
[3] = Food effect study 120 mg, Fed, Post-Drug
[4] = Food effect study 120 mg, Fed, Pre-Drug

## Cn1cc2c(-c3cc(F)c(CN4Cc5ncccc5C4=O)c(F)c3)cccc2n1 [VU319]
[1]
  SRT Delayed Recall: 11.3 (3.97)
  SRT Immediate Recall: 88.9 (19.83)
  SRT Recall Consistency: 55.7 (26.22)
  SRT Recall Failure: 10.2 (9.74)
[2]
  SRT Delayed Recall: 11.5 (3.69)
  SRT Immediate Recall: 86.6 (17.61)
  SRT Recall Consistency: 51.1 (24.64)
  SRT Recall Failure: 9.4 (8.54)
[3]
  SRT Delayed Recall: 10.9 (3.92)
  SRT Immediate Recall: 88.9 (20.45)
  SRT Recall Consistency: 53.4 (27.22)
  SRT Recall Failure: 8.3 (10.58)
[4]
  SRT Delayed Recall: 11.2 (3.33)
  SRT Immediate Recall: 88.7 (13.59)
  SRT Recall Consistency: 54 (18.33)
  SRT Recall Failure: 8 (6.11)
SAD study, 60 mg, Post-Drug
  SRT Delayed Recall: 8.83 (3.55)
  SRT Immediate Recall: 71.67 (14.95)
  SRT Recall Consistency: 35.33 (18.32)
  SRT Recall Failure: 19.83 (9.37)
SAD study, 60 mg, Pre-Drug
  SRT Delayed Recall: 9 (3.52)
  SRT Immediate Recall: 79.83 (13.18)
  SRT Recall Consistency: 44 (22.93)
  SRT Recall Failure: 13.5 (4.46)
SAD study, 120 mg, Post-Drug
  SRT Delayed Recall: 9.5 (5.86)
  SRT Immediate Recall: 84 (19.55)
  SRT Recall Consistency: 49.33 (25.15)
  SRT Recall Failure: 12.5 (10.78)
SAD study, 120 mg, Pre-Drug
  SRT Delayed Recall: 10.17 (5.42)
  SRT Immediate Recall: 84.67 (20.24)
  SRT Recall Consistency: 51.67 (27.6)
  SRT Recall Failure: 13 (9.76)
SAD study, 240 mg, Post-Drug
  SRT Delayed Recall: 9 (2.45)
  SRT Immediate Recall: 80.67 (13.65)
  SRT Recall Consistency: 41.5 (16.11)
  SRT Recall Failure: 10.83 (10.83)
SAD study, 240 mg, Pre-Drug
  SRT Delayed Recall: 10.67 (1.86)
  SRT Immediate Recall: 87.33 (11.38)
  SRT Recall Consistency: 54.33 (13.31)
  SRT Recall Failure: 10.83 (7.73)
SAD study, 400 mg, Post-Drug
  SRT Delayed Recall: 7.83 (3.87)
  SRT Immediate Recall: 70.83 (16.03)
  SRT Recall Consistency: 33.33 (18.24)
  SRT Recall Failure: 20 (11.15)
SAD study, 400 mg, Pre-Drug
  SRT Delayed Recall: 8.83 (4.79)
  SRT Immediate Recall: 76.33 (24.51)
  SRT Recall Consistency: 42.33 (29.85)
  SRT Recall Failure: 19 (15.66)
SAD study, 600 mg, Post-Drug
  SRT Delayed Recall: 8.67 (4.8)
  SRT Immediate Recall: 85.83 (21.7)
  SRT Recall Consistency: 51 (27.8)
  SRT Recall Failure: 10.67 (12.58)
SAD study, 600 mg, Pre-Drug
  SRT Delayed Recall: 11.83 (1.94)
  SRT Immediate Recall: 91.17 (11.81)
  SRT Recall Consistency: 59.83 (13.39)
  SRT Recall Failure: 8.17 (5.27)
SAD study, all p > 0.2
  SRT four outcome measures, effect of dose: did not show a significant effect of dose, nor dose by time
Food effect study, 120 mg
  SRT performance, effect of food or time: no impact of food or time
